“Also recorded” adds a separate entry of the source. Ends that are not written are not given here. Peptide text beside a SMILES is read from it.
Key:
A. baumannii ATCC 19606 [1] = experiment: NPN uptake outer membrane permeabilization assay; type: cell-based, Acinetobacter baumannii
Method: (§1) We next tested whether ATB peptides act primarily by disrupting the bacterial membrane, we assessed their ability to depolarize the cytoplasmic membrane and permeabilize the outer membrane of A. baumannii ATCC 19606 at their MICs using DiSC3-5 and NPN uptake assays, respectively. […] Fluorescence data were analysed in terms of both maximal signal over time and time-resolved kinetic profiles.
N-phenyl-1-napthylamine (NPN) uptake assay was used to evaluate the ability of the peptides to permeabilize the bacterial outer membrane. Inocula of A. baumannii ATCC 19606 were grown to an OD at 600 nm of 0.4 mL^−1, centrifuged (9,391 ģ at 4 °C for 10 min), washed and resuspended in 5 mmol L^−1 HEPES buffer (pH 7.4) containing 5 mmol L^−1 glucose. The bacterial solution was added to a white 96-well plate ([…] per well) together with […] of NPN at 0.5 mmol L^−1. Consequently, peptides diluted in water were added to each well, and the fluorescence was measured at lex = 350 nm and lem = 420 nm over time for 45 min. The relative fluorescence was calculated using the untreated control (buffer + bacteria + fluorescent dye) and polymyxin B (positive control) as baselines and the following equation was applied to reflect % of difference between the baselines and the sample: Percentagedifference=100*flurescencesample-flurescenceuntreatedcontrol/flurescenceuntreatedcontrol

A. baumannii ATCC 19606 [2] = experiment: DiSC3-5 cytoplasmic membrane depolarization assay; type: cell-based, Acinetobacter baumannii; settings: peptides at their MICs; HEPES buffer pH 7.2, 20 mmol L^−1 glucose, 0.1 mol L^−1 KCl; 60 min; responses remained below Triton X-100; in words
Method: as §1
The cytoplasmic membrane depolarization assay was performed using the membrane potential-sensitive dye 3,3’-dipropylthiadicarbocyanine iodide (DiSC3-5). A. baumannii ATCC 19606 in the mid-logarithmic phase were washed and resuspended at 0.05 OD mL^−1 (optical value at 600 nm) in HEPES buffer (pH 7.2) containing 20 mmol L^−1 glucose and 0.1 mol L^−1 KCl. […] Membrane depolarization was then followed by reading changes in the fluorescence (lex = 622 nm, lem = 670 nm) over time for 60 min. The relative fluorescence was calculated using the untreated control (buffer + bacteria + fluorescent dye) and polymyxin B (positive control) as baselines and the following equation was applied to reflect % of difference between the baselines and the sample: Percentagedifference=100*flurescencesample-flurescenceuntreatedcontrol/flurescenceuntreatedcontrol

[3] = system: human embryonic kidney (HEK293T) cells; settings: 24 h
Method: The cells were cultured in high-glucose Dulbecco’s modified Eagle’s medium supplemented with 1% penicillin and streptomycin (antibiotics) and 10% fetal bovine serum and grown at 37 °C in a humidified atmosphere containing 5% CO2.
One day prior to the experiment, 100 μL aliquots of human embryonic kidney (HEK293T) cells, at a concentration of 50,000 cells per mL, were seeded into each well of 96-well plates (5,000 cells per well). Following cell attachment, the HEK293T cells were treated with increasing concentrations of peptides (ranging from 8 to 128 μmol L^−1) and incubated for 24 h. After the exposure period, cytotoxicity was assessed using the 3-(4,5-dimethylthiazol-2-yl)-2,5-diphenyltetrazolium bromide (MTT) assay. Specifically, the MTT reagent was prepared at a concentration of 0.5 mg mL^−1 in phenol red-free medium and used to replace the peptide-containing supernatants (100 μL per well). The plates were then incubated for 4 h at 37 °C in a humidified atmosphere with 5% CO2, facilitating the formation of insoluble formazan crystals. These crystals were subsequently dissolved in 0.04 mol L^−1 hydrochloric acid prepared in anhydrous isopropanol. Absorbance was measured at 570 nm using a spectrophotometer to quantify cell viability. All experiments were conducted in triplicate (three biological replicates).
To evaluate the safety profile of the ATB peptides, we measured their cytotoxicity against human embryonic kidney (HEK293T) cells using a 3-(4,5-dimethylthiazol-2-yl)-2,5-diphenyltetrazolium bromide (MTT) viability assay and determined half-maximal cytotoxic concentrations (CC50). […]
index as the ratio CC50 (HEK293T) / MIC against A. baumannii ATCC 19606.

A. baumannii ATCC 19606 [4] = experiment: microbe, parasite or virus in culture; settings: Fig. 4 heat map; broth microdilution, LB, 10[5] bacterial cells, 0–64 μmol L^−1, 37 °C, one day, OD600; mode of replicates (triplicate)
Method: Figure 4. […] Briefly, 10[5] bacterial cells were incubated with serially diluted peptides (0–64 μmol L^−1) at 37 °C. Bacterial growth was assessed by measuring the optical density at 600 nm in a microplate reader one day post-treatment.

[5] = peptides at their MICs, 5 mmol L^−1 HEPES pH 7.4, 5 mmol L^−1 glucose, 45 min, rank order in words relative to bacterial baseline

CC[C@H](C)CCCCC(=O)N[C@@H](CCN)C(=O)N[C@H](C(=O)N[C@@H](CCN)C(=O)N[C@H]1CCNC(=O)[C@H]([C@@H](C)O)NC(=O)[C@H](CCN)NC(=O)[C@H](CCN)NC(=O)[C@H](CC(C)C)NC(=O)[C@@H](Cc2ccccc2)NC(=O)[C@H](CCN)NC1=O)[C@@H](C)O [Polymyxin B, reference compound] (HELM PEPTIDE1{[CC[C@H](C)CCCCC(=O)[*:2]].[Dab].T.[Dab].[Dab].[Dab].[dF].L.[Dab].[Dab].T}$PEPTIDE1,PEPTIDE1,5:R3-11:R2$$$V2.0; N-terminus assumed; bridges inferred)
outer membrane permeabilization (NPN fluorescence response) (A. baumannii ATCC 19606 [1]; pH 7.4): remained at or near baseline

MFKTNLSRVSVKRLLIWVVWWLRLKKLKKKAKKFRKK-OH [ATB60]
cytoplasmic membrane depolarization signal (DiSC3-5 fluorescence) (A. baumannii ATCC 19606 [2]): larger depolarization signals | outer membrane permeabilization (NPN fluorescence response) (A. baumannii ATCC 19606 [1]; [5]): strong outer-membrane permeabilization; also recorded: largest NPN responses | half-maximal cytotoxic concentration (CC50) [3]: 9 to 12 µM

MIKVSKLVVAKKLNLRKKLKKYLKKPKLGKILLL-OH [ATB12]
half-maximal cytotoxic concentration (CC50) [3]: 20 to 100 µM

MIMATKLIKKNKFAKELFSRKYKPRVIKPKKGKGSFKRKKR-OH [ATB99]
outer membrane permeabilization (NPN fluorescence response) (A. baumannii ATCC 19606 [1]; [5]): largest NPN responses

MKILKKNMHNKILPMVSHKKWMMLIKRLKTLGRIKK-OH [ATB56]
half-maximal cytotoxic concentration (CC50) [3]: 20 to 100 µM

MKKLIRNIIYSKLKFLWRWHRPLIIQRRNL-OH [ATB65]
cytoplasmic membrane depolarization signal (DiSC3-5 fluorescence) (A. baumannii ATCC 19606 [2]): larger depolarization signals | outer membrane permeabilization (NPN fluorescence response) (A. baumannii ATCC 19606 [1]; [5]): strong outer-membrane permeabilization; also recorded: largest NPN responses | half-maximal cytotoxic concentration (CC50) [3]: 5 to 6 µM

MKKLKIKKLKIKKLKIKKLKIKKLKSGLRSQ-OH [ATB2]
outer membrane permeabilization (NPN fluorescence response) (A. baumannii ATCC 19606 [1]; [5]): only minor NPN increases

MKLKKLIKFFAFAKGISLLSRRPVRKRTGGLLKKYLAWKYLRRR-OH [ATB6]
half-maximal cytotoxic concentration (CC50) [3]: 20 to 100 µM

MLGRKGLRSVWNGRLNVRKRRQNVRLRKNVRRKNVPKPSVWLI-OH [ATB39]
cytoplasmic membrane depolarization signal (DiSC3-5 fluorescence) (A. baumannii ATCC 19606 [2]): larger depolarization signals | half-maximal cytotoxic concentration (CC50) [3]: 20 to 100 µM

MLKGLKKFKWLKKLKRRLMELNELKKFKKLMELRS-OH [ATB13]
half-maximal cytotoxic concentration (CC50) [3]: 9 to 12 µM

MLKLLKKLQMHLLKKLQKEKLLLNLQKKTLKRKRFRHA-OH [ATB61]
outer membrane permeabilization (NPN fluorescence response) (A. baumannii ATCC 19606 [1]; [5]): largest NPN responses | half-maximal cytotoxic concentration (CC50) [3]: 20 to 100 µM

MLKLLSIKLKSKKKILRMTLTKLNKWLKTKKKWLRNLKTM-OH [ATB5]
Minimal Inhibitory Concentration, A. baumannii ATCC 19606 (-) (A. baumannii ATCC 19606 [4]): 1 µmol/L | outer membrane permeabilization (NPN fluorescence response) (A. baumannii ATCC 19606 [1]; [5]): only minor NPN increases | half-maximal cytotoxic concentration (CC50) [3]: 9 to 12 µM

MNKIILRVKKMLKNIKLKNNGIRKYNVKMEVKLVYFK-OH [ATB63]
cytoplasmic membrane depolarization signal (DiSC3-5 fluorescence) (A. baumannii ATCC 19606 [2]): larger depolarization signals | outer membrane permeabilization (NPN fluorescence response) (A. baumannii ATCC 19606 [1]; [5]): largest NPN responses

MRIKLHLRLAFLRFRKKKSLSRLKPISKIRSK-OH [ATB76]
outer membrane permeabilization (NPN fluorescence response) (A. baumannii ATCC 19606 [1]; [5]): strong outer-membrane permeabilization; also recorded: largest NPN responses | half-maximal cytotoxic concentration (CC50) [3]: 9 to 12 µM

MRSLKRQLLKHKAVKLSIKKWQFLRKLKLVPKRH-OH [ATB18]
half-maximal cytotoxic concentration (CC50) [3]: 9 to 12 µM

MSLKKIAKLLANKKVRKIAWMLISHPKFIKMLKNSIKRR-OH [ATB55]
half-maximal cytotoxic concentration (CC50) [3]: 5 to 6 µM

MSLRKKLFVKTMLRVKIKKQSKQRLQKTKRLLQKLKRPWM-OH [ATB3]
half-maximal cytotoxic concentration (CC50) [3]: 20 to 100 µM

MTKHAIAAKSLLKKWIISRPLNMKKKSSPFQKIRKMFKRFFK-OH [ATB25]
half-maximal cytotoxic concentration (CC50) [3]: 5 to 6 µM

MTKLKMYLKKVRKNANNSTKQWKYGLPVRNAKLWNNFQPKK-OH [ATB51]
half-maximal cytotoxic concentration (CC50) [3]: 20 to 100 µM
